Measurements taken from Sander's compilation of Henry's law constants (doi:10.1021/je700612b).

Assay: Henry solubility constant Hcp at 298.15 K (mol/(m3 Pa))
Conditions: reference: Ji et al. (2008)

| SMILES | Henry solubility constant Hcp |
| --- | --- |
| COc1ccc(C=O)cc1 [4-methoxybenzaldehyde] | 24 |
| COc1ccccc1C(C)=O [2′-methoxyacetophenone] | 17 |
| Cc1cccc(C=O)c1 [3-methylbenzaldehyde] | 0.35 |
| CCC(=O)c1ccccc1 [phenyl ethyl ketone] | 0.99 |
| COc1cccc(C=O)c1 [3-methoxybenzaldehyde] | 5.1 |

The next lines start with the values.

| Henry solubility constant Hcp | SMILES |
| --- | --- |
| 0.76 | CC(=O)c1ccccc1C [2′-methylacetophenone] |
| 0.31 | Cc1ccccc1C=O [2-methylbenzaldehyde] |
| 19 | COc1cccc(C(C)=O)c1 [3′-methoxyacetophenone] |
| 1 | CC(=O)c1ccccc1O [2′-hydroxyacetophenone] |
| 10 | COc1ccccc1C=O [2-methoxybenzaldehyde] |
| 1.8 | CC(=O)c1ccc(C)cc1 [4'-methylacetophenone] |
| 1.2 | CC(=O)c1ccccc1 [1-phenylethanone] |
| 1.5 | CC(=O)c1cccc(C)c1 [3′-methylacetophenone] |
